Data reported in ChEMBL document CHEMBL1121647, “Synthesis and antiviral properties of (Z)-5-(2-bromovinyl)-2'-deoxyuridine” (1981).
Converted amounts (≈) assume the structure as drawn.

Tests used:
Assay type in all cases: functional
Human alphaherpesvirus 2 [1] = experiment: Minimum inhibitory concentration required to reduce HSV-2 (Lyons) strain-induced cytopathogenicity in primary rabbit kidney cell cultures
Human alphaherpesvirus 1 [2] = experiment: Minimum inhibitory concentration required to reduce HSV-1 (F) strain-induced cytopathogenicity in primary rabbit kidney cell cultures
Human alphaherpesvirus 1 [3] = experiment: Minimum inhibitory concentration required to reduce HSV-1 (KOS) strain-induced cytopathogenicity in primary rabbit kidney cell cultures
Human alphaherpesvirus 1 [4] = experiment: Minimum inhibitory concentration required to reduce HSV-1 (McIntyre) strain-induced cytopathogenicity in primary rabbit kidney cell cultures
Human alphaherpesvirus 2 [5] = experiment: Minimum inhibitory concentration required to reduce HSV-2 (196) strain-induced cytopathogenicity in primary rabbit kidney cell cultures
Human alphaherpesvirus 2 [6] = experiment: Minimum inhibitory concentration required to reduce HSV-2 (G) strain-induced cytopathogenicity in primary rabbit kidney cell cultures
[7] = tested on: Vesicular stomatitis virus; experiment: Minimum inhibitory concentration required to reduce vesicular stomatis virus-induced cytopathogenicity in primary rabbit kidney cell cultures
Human alphaherpesvirus 2 [8] = experiment: Antiviral activity expressed as minimum HSV-2 (Lyons) strain-induced cytopathogenicity in primary rabbit kidney cell cultures

| Compound | MIC (Human alphaherpesvirus 2 [1]) [µg/mL] | MIC (Human alphaherpesvirus 1 [2]) [µg/mL] | MIC (Human alphaherpesvirus 1 [3]) [µg/mL] | MIC (Human alphaherpesvirus 1 [4]) [µg/mL] | MIC (Human alphaherpesvirus 2 [5]) [µg/mL] | MIC (Human alphaherpesvirus 2 [6]) [µg/mL] | MIC [7] [µg/mL] | MIC (Human alphaherpesvirus 2 [8]) [µg/mL] |
| --- | --- | --- | --- | --- | --- | --- | --- | --- |
| O=c1[nH]c(=O)n([C@H]2C[C@H](O)[C@@H](CO)O2)cc1/C=C\Br | 4 (≈ 12 µM) | 2 (≈ 6 µM) | 4 (≈ 12 µM) | 1 (≈ 3 µM) | 4 (≈ 12 µM) | 2 (≈ 6 µM) | > 200 | – |
| O=c1[nH]c(=O)n([C@H]2C[C@H](O)[C@@H](CO)O2)cc1/C=C/Br [BRIVUDINE] | – | 0.02 (≈ 0.06 µM) | 0.02 (≈ 0.06 µM) | 0.01 (≈ 0.03 µM) | 0.4 (≈ 1.2 µM) | 0.7 (≈ 2.1 µM) | > 200 | 0.4 (≈ 1.2 µM) |
| O=c1[nH]c(=O)n([C@H]2C[C@H](O)[C@@H](CO)O2)cc1I [IDOXURIDINE] | – | 0.2 (≈ 0.565 µM) | 0.2 (≈ 0.565 µM) | 0.2 (≈ 0.565 µM) | 0.4 (≈ 1.13 µM) | 0.4 (≈ 1.13 µM) | > 200 | 0.2 (≈ 0.565 µM) |
